Assay results taken from patent US20220409620A1, “REDUCING IMMUNOGENICITY TO PEGLOTICASE” (Horizon Pharma Rheumatology LLC, priority 2016, published 2022).

How the values were obtained:
[1] = test system: adult patients with uncontrolled gout; assay: Tender and swollen joint counts, open-label study; type: in vivo, human
Experimental: Tender and Swollen Joint Counts: Tender and swollen (excludes hip) joint counts were recorded at the Week −4 or week −6 (prior to the first dose of MTX) Visit during the MTX Run-in Period for the open-label and randomized studies, respectively; prior to pegloticase infusion at the Day 1 and Weeks 14, 24 and 36 Visits, or at the Day 1 and weeks 6, 14, 20, 24, 30, 36, and 44 visits during the Pegloticase+IMM Period for the open-label and randomized studies, respectively; and at the End of Pegloticase Infusions Visit (if applicable) and the Week 52/End of Study/Early Termination Visit and the Post Treatment 3 and 6 month Follow-up visits. Tender and swollen joint counts were assessed by physical examination.

[2] = test system: patients with refractory chronic gout; conditions: Phase 2 program; cited from earlier work
[3] = Early Termination Visit, Pegloticase Baseline, mITT Population
[4] = End of Pegloticase Infusions Visit, Pegloticase Baseline, mITT Population
[5] = Week 14, Pegloticase Baseline, mITT Population
[6] = Week 24, Pegloticase Baseline, mITT Population
[7] = Week 36, Pegloticase Baseline, mITT Population
[8] = Week 52/ET, Pegloticase Baseline, mITT Population
[9] = mITT, Early Termination Visit, n=3
[10] = mITT, End of Pegloticase Infusions Visit, n=2

Substance: pegloticase
- Swollen Joint Count, Change from Baseline, Mean (SD) [1, 3]: −3.3 (3.06)
- Swollen Joint Count, Change from Baseline, Median [1, 3]: −4.0
- Swollen Joint Count, Observed, Mean (SD) [1, 3]: 0.7 (0.58)
- Swollen Joint Count, Observed, Median [1, 3]: 1.0
- Tender Joint Count, Change from Baseline, Mean (SD) [1, 3]: −2.7 (4.16)
- Tender Joint Count, Change from Baseline, Median [1, 3]: −4.0
- Tender Joint Count, Observed, Mean (SD) [1, 3]: 7.7 (8.96)
- Tender Joint Count, Observed, Median [1, 3]: 3.0
- Swollen Joint Count, Change from Baseline, Mean (SD) [1, 4]: −2.0 (2.83)
- Swollen Joint Count, Change from Baseline, Median [1, 4]: −2.0
- Swollen Joint Count, Observed, Mean (SD) [1, 4]: 0.0 (0.00)
- Swollen Joint Count, Observed, Median [1, 4]: 0.0
- Tender Joint Count, Change from Baseline, Mean (SD) [1, 4]: −3.0 (5.66)
- Tender Joint Count, Change from Baseline, Median [1, 4]: −3.0
- Tender Joint Count, Observed, Mean (SD) [1, 4]: 2.0 (2.83)
- Tender Joint Count, Observed, Median [1, 4]: 2.0
- Swollen Joint Count, Change from Baseline, Mean (SD) [1, 5]: −3.6 (7.04)
- Swollen Joint Count, Change from Baseline, Median [1, 5]: −2.5
- Swollen Joint Count, Observed, Mean (SD) [1, 5]: 1.7 (3.73)
- Swollen Joint Count, Observed, Median [1, 5]: 0.0
- Tender Joint Count, Change from Baseline, Mean (SD) [1, 5]: −5.1 (8.12)
- Tender Joint Count, Change from Baseline, Median [1, 5]: −5.0
- Tender Joint Count, Observed, Mean (SD) [1, 5]: 4.6 (6.16)
- Tender Joint Count, Observed, Median [1, 5]: 2.0
- Swollen Joint Count, Change from Baseline, Mean (SD) [1, 6]: −5.1 (6.66)
- Swollen Joint Count, Change from Baseline, Median [1, 6]: −3.0
- Swollen Joint Count, Observed, Mean (SD) [1, 6]: 0.5 (1.21)
- Swollen Joint Count, Observed, Median [1, 6]: 0.0
- Tender Joint Count, Change from Baseline, Mean (SD) [1, 6]: −6.8 (8.16)
- Tender Joint Count, Change from Baseline, Median [1, 6]: −4.0
- Tender Joint Count, Observed, Mean (SD) [1, 6]: 2.6 (3.88)
- Tender Joint Count, Observed, Median [1, 6]: 0.0
- Swollen Joint Count, Change from Baseline, Mean (SD) [1, 7]: −6.2 (8.15)
- Swollen Joint Count, Change from Baseline, Median [1, 7]: −4.0
- Swollen Joint Count, Observed, Mean (SD) [1, 7]: 0.1 (0.33)
- Swollen Joint Count, Observed, Median [1, 7]: 0.0
- Tender Joint Count, Change from Baseline, Mean (SD) [1, 7]: −7.8 (8.94)
- Tender Joint Count, Change from Baseline, Median [1, 7]: −4.0
- Tender Joint Count, Observed, Mean (SD) [1, 7]: 2.1 (4.54)
- Tender Joint Count, Observed, Median [1, 7]: 0.0
- Swollen Joint Count, Change from Baseline, Mean (SD) [1, 8]: −13.0 (13.00)
- Swollen Joint Count, Change from Baseline, Median [1, 8]: −13.0
- Swollen Joint Count, Observed, Mean (SD) [1, 8]: 0.0 (0.00)
- Swollen Joint Count, Observed, Median [1, 8]: 0.0
- Tender Joint Count, Change from Baseline, Mean (SD) [1, 8]: −16.0 (17.52)
- Tender Joint Count, Change from Baseline, Median [1, 8]: −15.0
- Tender Joint Count, Observed, Mean (SD) [1, 8]: 5.3 (3.21)
- Tender Joint Count, Observed, Median [1, 8]: 4.0
- Swollen Joint Count, Change from Methotrexate Baseline, Mean (SD) ([1]; mITT, Day 1, n=14): −0.7 (5.21)
- Swollen Joint Count, Change from Methotrexate Baseline, Median ([1]; mITT, Day 1, n=14): 0.5
- Swollen Joint Count, Observed, Mean (SD) ([1]; mITT, Day 1, n=14): 5.3 (6.94)
- Swollen Joint Count, Observed, Median ([1]; mITT, Day 1, n=14): 3.5
- Tender Joint Count, Change from Methotrexate Baseline, Mean (SD) ([1]; mITT, Day 1, n=14): −1.9 (9.75)
- Tender Joint Count, Change from Methotrexate Baseline, Median ([1]; mITT, Day 1, n=14): 0.0
- Tender Joint Count, Observed, Mean (SD) ([1]; mITT, Day 1, n=14): 9.6 (11.03)
- Tender Joint Count, Observed, Median ([1]; mITT, Day 1, n=14): 7.0
- Swollen Joint Count, Change from Methotrexate Baseline, Mean (SD) [1, 9]: −1.0 (1.73)
- Swollen Joint Count, Change from Methotrexate Baseline, Median [1, 9]: 0.0
- Swollen Joint Count, Observed, Mean (SD) [1, 9]: 0.7 (0.58)
- Swollen Joint Count, Observed, Median [1, 9]: 1.0
- Tender Joint Count, Change from Methotrexate Baseline, Mean (SD) [1, 9]: 0.7 (5.13)
- Tender Joint Count, Change from Methotrexate Baseline, Median [1, 9]: 2.0
- Tender Joint Count, Observed, Mean (SD) [1, 9]: 7.7 (8.96)
- Tender Joint Count, Observed, Median [1, 9]: 3.0
- Swollen Joint Count, Change from Methotrexate Baseline, Mean (SD) [1, 10]: −7.0 (4.24)
- Swollen Joint Count, Change from Methotrexate Baseline, Median [1, 10]: −7.0
- Swollen Joint Count, Observed, Mean (SD) [1, 10]: 0.0 (0.00)
- Swollen Joint Count, Observed, Median [1, 10]: 0.0
- Tender Joint Count, Change from Methotrexate Baseline, Mean (SD) [1, 10]: −12.0 (7.07)
- Tender Joint Count, Change from Methotrexate Baseline, Median [1, 10]: −12.0
- Tender Joint Count, Observed, Mean (SD) [1, 10]: 2.0 (2.83)
- Tender Joint Count, Observed, Median [1, 10]: 2.0
- Swollen Joint Count, Change from Methotrexate Baseline, Mean (SD) ([1]; mITT, Week 14, n=14): −4.3 (7.38)
- Swollen Joint Count, Change from Methotrexate Baseline, Median ([1]; mITT, Week 14, n=14): −2.0
- Swollen Joint Count, Observed, Mean (SD) ([1]; mITT, Week 14, n=14): 1.7 (3.73)
- Swollen Joint Count, Observed, Median ([1]; mITT, Week 14, n=14): 0.0
- Tender Joint Count, Change from Methotrexate Baseline, Mean (SD) ([1]; mITT, Week 14, n=14): −7.0 (14.20)
- Tender Joint Count, Change from Methotrexate Baseline, Median ([1]; mITT, Week 14, n=14): 0.0
- Tender Joint Count, Observed, Mean (SD) ([1]; mITT, Week 14, n=14): 4.6 (6.16)
- Tender Joint Count, Observed, Median ([1]; mITT, Week 14, n=14): 2.0
- Swollen Joint Count, Change from Methotrexate Baseline, Mean (SD) ([1]; mITT, Week 24, n=11): −6.6 (9.03)
- Swollen Joint Count, Change from Methotrexate Baseline, Median ([1]; mITT, Week 24, n=11): −3.0
- Swollen Joint Count, Observed, Mean (SD) ([1]; mITT, Week 24, n=11): 0.5 (1.21)
- Swollen Joint Count, Observed, Median ([1]; mITT, Week 24, n=11): 0.0
- Tender Joint Count, Change from Methotrexate Baseline, Mean (SD) ([1]; mITT, Week 24, n=11): −10.2 (14.27)
- Tender Joint Count, Change from Methotrexate Baseline, Median ([1]; mITT, Week 24, n=11): −4.0
- Tender Joint Count, Observed, Mean (SD) ([1]; mITT, Week 24, n=11): 2.6 (3.88)
- Tender Joint Count, Observed, Median ([1]; mITT, Week 24, n=11): 0.0
- Swollen Joint Count, Change from Methotrexate Baseline, Mean (SD) ([1]; mITT, Week 36, n=9): −7.8 (10.81)
- Swollen Joint Count, Change from Methotrexate Baseline, Median ([1]; mITT, Week 36, n=9): −3.0
- Swollen Joint Count, Observed, Mean (SD) ([1]; mITT, Week 36, n=9): 0.1 (0.33)
- Swollen Joint Count, Observed, Median ([1]; mITT, Week 36, n=9): 0.0
- Tender Joint Count, Change from Methotrexate Baseline, Mean (SD) ([1]; mITT, Week 36, n=9): −12.3 (14.56)
- Tender Joint Count, Change from Methotrexate Baseline, Median ([1]; mITT, Week 36, n=9): −7.0
- Tender Joint Count, Observed, Mean (SD) ([1]; mITT, Week 36, n=9): 2.1 (4.54)
- Tender Joint Count, Observed, Median ([1]; mITT, Week 36, n=9): 0.0
- Swollen Joint Count, Change from Methotrexate Baseline, Mean (SD) ([1]; mITT, Week 52/ET, n=3): −21.0 (9.64)
- Swollen Joint Count, Change from Methotrexate Baseline, Median ([1]; mITT, Week 52/ET, n=3): −25.0
- Swollen Joint Count, Observed, Mean (SD) ([1]; mITT, Week 52/ET, n=3): 0.0 (0.00)
- Swollen Joint Count, Observed, Median ([1]; mITT, Week 52/ET, n=3): 0.0
- Tender Joint Count, Change from Methotrexate Baseline, Mean (SD) ([1]; mITT, Week 52/ET, n=3): −24.0 (21.38)
- Tender Joint Count, Change from Methotrexate Baseline, Median ([1]; mITT, Week 52/ET, n=3): −17.0
- Tender Joint Count, Observed, Mean (SD) ([1]; mITT, Week 52/ET, n=3): 5.3 (3.21)
- Tender Joint Count, Observed, Median ([1]; mITT, Week 52/ET, n=3): 4.0
- dose-response plateau dose [2]: 12 mg
- minimally effective dose [2]: 4 mg
- safe and optimally effective dose [2]: 8 mg
